Laboratory results as given in US20110028719A1, “SCREENING METHODS FOR AMYLOID BETA MODULATORS” (priority 2006, published 2011).

Target: immobilized Aβ fibrils (Homo sapiens, UniProt P05067)
Experiment: FAC-MS assay of free Aβ monomer (indicator) binding to immobilized Aβ fibrils in the presence of test compounds
Details: FAC-MS % shift of breakthrough time of free Aβ1-42 monomer (1 μM) on immobilized Aβ fibrils; compounds 1-10 μM in 20 mM NH4OAc, 1% DMSO; void marker M3

Chain of immobilized Aβ fibrils (P05067 672-713 limits assumed): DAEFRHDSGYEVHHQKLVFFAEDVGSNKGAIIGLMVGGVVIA

Point of comparison: “1,2,5,6-bis-O-(1-Methylethyldene)-3-methyl-1D-chiro-inositol [Compound 53234-7, reference compound]”, “% of Shift” value 4%. Against it:
- O=C(O)[C@]1(O)C[C@@H](O)[C@@H](O)[C@H](O)C1 [Compound 138622, 1R,3R,4R,5R-Quinic acid, reference compound] — lower, 3%
- CC(C)(C)C(=O)OC1C(O)C(OC(=O)C(C)(C)C)C(OC(=O)C(C)(C)C)C(OC(=O)C(C)(C)C)C1OC(=O)C(C)(C)C (centres unmarked) [Compound 37387002, 2,3,4,5-tetrakis[(2,2-dimethylpropanoyl)oxy]-6-hydroxycyclohexyl pivalate] — higher, 5%
- CC(=O)OC1C(OC(=O)CC(C)C)C(OC(=O)CC(C)C)C(OC(=O)CC(C)C)C(OC(=O)CC(C)C)C1OC(=O)CC(C)C (centres unmarked) [Compound 37387013, 2-(acetyloxy)-3,4,5,6-tetrakis[(3-methylbutanoyl)oxy]cyclohexanyl 3-methylbutanoate] — lower, 3%
- CCC(=O)OC1C(OC(=O)CC)C(OC(=O)CC)C(OC(=O)CC)C(OC(=O)CC)C1OC(=O)CC (centres unmarked) [Compound 37387006, 2,3,4,5,6-pentakis(propionyloxy)cyclohexyl propionate] — the same, 4%
- O=C(OC1C(O)C(OC(=O)c2ccccc2)C(OC(=O)c2ccccc2)C(OC(=O)c2ccccc2)C1OC(=O)c1ccccc1)c1ccccc1 (centres unmarked) [Compound 37387010, 2,3,5,6-tatrakis(benzoyloxy)-4-hydroxycyclohexyl benzoate] — lower, 2%
- O=P(O)(O)O[C@H]1[C@H](OP(=O)(O)O)[C@@H](OP(=O)(O)O)[C@H](OP(=O)(O)O)[C@@H](OP(=O)(O)O)[C@H]1OP(=O)(O)O [Compound P-3168, Phytic acid, reference compound] — lower, 2%
- O[C@H]1[C@H](O)[C@@H](O)[C@@H]2O[C@@H]2[C@@H]1O [Compound C5424, Conduritol B epoxide, reference compound] — lower, 1%
- CC(C)C(=O)OC1C(OC(=O)C(C)C)C(OC(=O)C(C)C)C(OC(=O)C(C)C)C(OC(=O)C(C)C)C1OC(=O)C(C)C (centres unmarked) [Compound 37387007, 2,3,4,5,6-pentakis(isobutyryloxy)cyclohexyl 2-methylproanoate] — higher, 5%
- OC1C(O)C(O)C(O)C(O)C1O (centres unmarked) [Chiro, chiro-inositol, reference compound] — lower, 2%
- COC1C(O)C2OC3(CCCCC3)OC2C2OC3(CCCCC3)OC12 (racemic) [Compound 53226-6, 1,2,3,4-DL-O-cyclohexyldene-5-O-methyl-L-chiro-inositol, reference compound] — lower, 2%
- CC(C)CC(=O)OC1C(O)C(OC(=O)CC(C)C)C(OC(=O)CC(C)C)C(OC(=O)CC(C)C)C1OC(=O)CC(C)C (centres unmarked) [Compound 37387009, 2-hydroxy-3-4,5,6-tetrakis[(3-methylbutanoyl)oxo]cyclohexyl 3-methylbutanoate] — lower, 2%
- OC1[C@@H](O)[C@H](O)C(O[C@H]2OC[C@H](O)[C@H](O)[C@H]2O)[C@H](O)[C@H]1O (stereo partly drawn) [Compound A-9826, 2-O-b-L-Arabinopyranosyl myo-inositol, reference compound] — lower, 3%
- C[C@H]1O[C@H](OC2[C@@H](O)[C@@H](O)C(O)[C@H](O)[C@H]2O)[C@@H](N)C[C@@H]1N=C(N)C(=O)O.Cl (some centres unmarked) [Compound K413, Kasugamycin hydrochloride, reference compound] — lower, 2%

Same assay, conditions: FAC-MS screen; shift of free Aβ monomer breakthrough on immobilized Aβ fibrils in presence of compound; scale not given

Point of comparison: `CC12CC3(C)CC(C)(C1)CC(C(=O)NCC(=O)O)(C2)C3`, “Aβ Shift” value 1. Against it:
- CC1CCC(C(C)C)C(OCCC[N+](C)(C)C)C1 (centres unmarked) — higher, 2
- CC1CC(NC(=O)c2cccc3ccccc23)CC(C)(C)C1 (centres unmarked) — lower, 0
- COC(=O)C1(C)CC2(C)CC(C)(C1)C(=O)N(C)C2=O (centres unmarked) — the same, 1
- CC1CCCC(NC(=O)Nc2cccs2)C1C (centres unmarked) — higher, 2
- CC12CC3(C)CC(C)(C1)CC(C(=O)NCCO)(C2)C3 — higher, 2
- CC1(C)CC(=O)C2=C(C1)CC1(C)CC(C)(C)CC2(O)C1 (centres unmarked) — lower, 0
- CC1CCC(C(C)C)C(OCC(O)CN2CCOCC2)C1 (centres unmarked) — the same, 1
- CC1CCCC(NC(=O)c2ccccc2C(=O)O)C1C (centres unmarked) — higher, 2
- CC12CC3CC(C)(C1)CC(CN1CCOCC1)(C3)C2 — the same, 1
- CC1C(C(=O)Nc2ccccc2)CCCC1(C)C(=O)O (centres unmarked) — the same, 1
- OCC1CC(Cl)CC(Cl)C1O (centres unmarked) — lower, 0
- CC1CC2=C(/C(=N/O)C1)C1(O)CC(C)CC(C)(C2)C1 (centres unmarked) — lower, 0
- CC(=O)NC12CC3(C)CC(C)(C1)CC(NC(C)=O)(C3)C2 — the same, 1
- CC1CCCC(NC(=O)CCC2CCCCC2)C1C (centres unmarked) — lower, 0
- CC1CC(NC(=O)C2(C)CC2(Cl)Cl)CC(C)(C)C1 (centres unmarked) — lower, 0
- CC12CC3(C)CC(C)(C1)CC(C(=O)O)(C2)C3 — higher, 2
- O=S(=O)(c1ccccc1)C1C2CC3C(C2Cl)C31 (centres unmarked) — lower, 0
- CC1CCC(C(C)C)C(OCC[N+](C)(C)C)C1 (centres unmarked) — higher, 2
- CN(C)CCNC(=O)C12CC3CC(C)(CC(C)(C3)C1)C2 — the same, 1
- CCCNC(=O)C12CC3(C)CC(C)(CC(C)(C3)C1)C2 — the same, 1
- CC1CCN(CC(=O)OC2CC(C)CCC2C(C)C)CC1 (centres unmarked) — the same, 1
- CC1CC(C)C(C(=O)c2ccccc2)C(O)C1 (centres unmarked) — the same, 1
- CC12CC3CC(C)(C1)CC(C(=O)Nc1nccs1)(C3)C2 — the same, 1
- CC(C)C1CCC(C)C(OC(=O)C2C3CCCCC32)C1 (centres unmarked) — the same, 1
- COC(=O)C12CCC(C)(C(O)C1)C2(C)C (centres unmarked) — the same, 1
- COc1ccc(C2(O)C(C)CCCC2C)cc1 (centres unmarked) — lower, 0
- CC1CC(NS(=O)(=O)c2cccs2)CC(C)(C)C1 (centres unmarked) — higher, 2
- CCC12CC3CC(O)(CC(O)(C3)C1)C2 — the same, 1
- CCCCCCCCCC(=O)NC1CCCC(C)C1C (centres unmarked) — lower, 0
- CC1CC(OC(=O)CN2CCCCC2)CC(C)(C)C1 (centres unmarked) — the same, 1
- CC(NC(=O)C12CC3(C)CC(C)(CC(C)(C3)C1)C2)C(=O)O (centres unmarked) — higher, 2
- O=C(O)C12CC3CC(C(=O)O)(C1)CC(C(=O)O)(C3)C2 — higher, 2
- CC1CCC(C(C)C)C(OC(=O)C2C3CCCCC32)C1 (centres unmarked) — lower, 0
- CCN(CC)CC12CC3CC(C)(CC(C)(C3)C1)C2 — higher, 2
- CC12CC3CC(C)(C1)CC(C(=O)NNC(N)=O)(C3)C2 — the same, 1
- CC1CC2(C)CC(C)C1(CO)CO2 (centres unmarked) — the same, 1
- CC1CCC(C(C)C)C(OC(=O)c2ccco2)C1 (centres unmarked) — higher, 2
- CC12CC3CC(C)(C1)CC(C(=O)NC1=NCCS1)(C3)C2 — the same, 1
- CC12CC3CC(C)(C1)CC(C(N)=O)(C3)C2 — the same, 1
- CCC1CC2(C(=O)NCc3ccco3)CC3(C)CC3(C1)C2 (centres unmarked) — the same, 1
- CC(=O)c1[nH]c(C)c(C(=O)NC2CCCC(C)C2C)c1C (centres unmarked) — the same, 1
- CCC(=O)O[C@H]1[C@H](OC(=O)CC)[C@@H](OC(=O)CC)[C@H](OC(=O)CC)[C@@H](OC(=O)CC)[C@H]1OC(=O)CC — higher, 4
- CC(CCc1ccc(O)cc1)NC1CCCC(C)C1C (centres unmarked) — the same, 1
- CC12CC3CC(C)(C1)CC(CNC(=O)c1ccccc1)(C3)C2 — the same, 1
- CC1C2CC3(C)CC(C(=O)O)(C2)CC1(C)C3 (centres unmarked) — the same, 1
- O=C(O)C1(O)CC(O)C(O)C(O)C1 (centres unmarked) — the same, 1
- CC12CC3(C)CC(C)(C1)CC(C(=O)NC(C)(C)C)(C2)C3 — higher, 2
- C=CC1CCC(O)C(N(C)C(=S)Nc2ccccc2)C1 (centres unmarked) — the same, 1
- COc1cccc(OC)c1C(=O)OC1CC(C)CC(C)C1 (centres unmarked) — lower, 0
- CC12CC3CC(C)(C1)CC(C(=O)Nc1nnn[nH]1)(C3)C2 — the same, 1
- CC12CC3(C)CC(C(=O)O)(C1)CC(C(=O)O)(C2)C3 — the same, 1
- CC1CC(C)CC(OC(=O)c2ccco2)C1 (centres unmarked) — lower, 0
- CC1CCCC(NC(=O)Cn2cc3c(n2)CCCC3)C1C (centres unmarked) — the same, 1
- CC12CC3(C)CC(C)(C1)CC(N)(C2)C3 — the same, 1
- Cc1ccc(C(C)(C)CC(C)NC2CCCC(C)C2C)o1 (centres unmarked) — the same, 1
- CC(N)C12CC3CC(C)(CC(C)(C3)C1)C2 (centres unmarked) — lower, 0
- CC1CC(NC(=O)c2cccs2)CC(C)(C)C1 (centres unmarked) — lower, 0
- CC12CC3(C)CC(C)(C1)CC(C(=O)NC(C)(C)CO)(C2)C3 — the same, 1
- CC(C)C(=O)O[C@@H]1[C@@H](OC(=O)C(C)C)[C@H](OC(=O)C(C)C)[C@H](O)[C@H](OC(=O)C(C)C)[C@H]1OC(=O)C(C)C — higher, 4
- O=C(O)C1CC(C(=O)O)C(C(=O)O)CC1C(=O)O (centres unmarked) — the same, 1
- CC1CC(OC(=O)/C=C/c2ccccc2)CC(C(C)C)C1 (centres unmarked) — lower, 0
- CCCCCCCCC(=O)NC1CC(C)CC(C)(C)C1 (centres unmarked) — lower, 0
- Cc1ccc[n+](CC(=O)OC2CC(C)CCC2C(C)C)c1 (centres unmarked) — the same, 1
- CC12CC3CC(C)(C1)CC(CN)(C3)C2 — higher, 2
- CC(=O)NC12CC3CC(C)(C1)CC(NC(C)=O)(C3)C2 — the same, 1
- C=CC1CCC(O)C(O)C1 (centres unmarked) — the same, 1
- COc1cccc(C(=O)OC2CC(C)CC(C)C2)c1 (centres unmarked) — lower, 0
- Cc1cc[n+](CC(=O)OC2CC(C)CCC2C(C)C)cc1 (centres unmarked) — the same, 1
- CCC12CC3CC(O)(C1)CC(C(=O)O)(C3)C2 (centres unmarked) — the same, 1
- CC(C)NC(=O)C12CC3(C)CC(C)(CC(C)(C3)C1)C2 — the same, 1
- CC(C)(C)C1CC(C(=O)O)CC(C(C)(C)C)C1 (centres unmarked) — the same, 1
- CC(=O)O[C@H]1[C@@H](OC(=O)CC(C)C)[C@H](OC(=O)CC(C)C)[C@@H](OC(=O)CC(C)C)[C@H](OC(=O)CC(C)C)[C@H]1OC(=O)CC(C)C — higher, 3
- CC1CC(C(=O)O)CC(C(=O)O)C1 (centres unmarked) — lower, 0
- OCC1(CO)CCCC(CO)(CO)C1O — the same, 1
- CC12CC3(C)CC(N)(C1)CC(C(=O)O)(C2)C3 — higher, 2
- CC1CCCC(N/C=C2\C(=O)Nc3ccccc32)C1C (centres unmarked) — higher, 2
- CC1CCC(N(CCCN)Cc2ccco2)CC1C (centres unmarked) — the same, 1
- CN(C)C(=S)NC(=O)C12CC3CC(C)(CC(C)(C3)C1)C2 — the same, 1
- COC(=O)CNC(=O)C12CC3(C)CC(C)(CC(C)(C3)C1)C2 — the same, 1
- CC1CCCC(NC(=O)c2csc3c2CCCC3)C1C (centres unmarked) — higher, 2
